Measurements as given in patent US11659837B2, “Mixtures comprising an urease inhibitor (UI) and a nitrification inhibitor such as 2-(3,4-dimethyl-1H-pyrazol-1-yl)succinic acid (DMPSA) or 3,4-dimethyl pyrazolium glycolate (DMPG)” (BASF SE, priority 2017, dated 2023).

Test system: N2O emissions from soils
Assay: Greenhouse experiment: detection of nitrous oxide (N2O) losses from pots
Details: urea
Source text: Detection of Nitrous Oxide Losses:
On application day (DATO), each pot (with/without plants or algae) was set onto a plant saucer designed with an inner compartment for the pot and an outer ring that is filled with water. At time 0, water holding capacity of the soil was set to 60-70% prior to application with/without fertilizer and a.i. Subsequently, a gas sampling chamber was placed over the plant saucer such that the rim fit into the ring filled with water to create a gas-tight chamber and 25 cc air from the chamber were drawn into a syringe and immediately emptied in to a Vacutainer (Labco, 12 ml volume). This equals the Time 0 measurement for each pot. The same procedure was performed with all pots in the experiment. After two hour incubation time, again 25 cc air samples were taken from the gas chambers and emptied into Vacutainers as described above. Plants were then returned to their positions in the climate chamber. The procedure was repeated at precisely the same time of day for up to 19 days.
Samples were analyzed in a Shimadzu 2014 GC equipped with an ECD system.

[1] = DAT 1, NI 0.20, UI 0.01 where present
[2] = DAT 1, NI 0.35, UI 0.01 where present
[3] = DAT 1, NI 0.50, UI 0.01 where present
[4] = DAT 2, NI 0.20, UI 0.01 where present
[5] = DAT 2, NI 0.35, UI 0.01 where present
[6] = DAT 2, NI 0.50, UI 0.01 where present
[7] = DAT 3, NI 0.20, UI 0.01 where present
[8] = DAT 3, NI 0.35, UI 0.01 where present
[9] = DAT 3, NI 0.50, UI 0.01 where present
[10] = DAT 4, NI 0.20, UI 0.01 where present
[11] = DAT 4, NI 0.35, UI 0.01 where present
[12] = DAT 4, NI 0.50, UI 0.01 where present
[13] = DAT 5, NI 0.20, UI 0.01 where present
[14] = DAT 5, NI 0.35, UI 0.01 where present
[15] = DAT 5, NI 0.50, UI 0.01 where present
[16] = DAT 6, NI 0.20, UI 0.01 where present
[17] = DAT 6, NI 0.35, UI 0.01 where present
[18] = DAT 6, NI 0.50, UI 0.01 where present
[19] = DAT 7, NI 0.20, UI 0.01 where present
[20] = DAT 7, NI 0.35, UI 0.01 where present
[21] = DAT 7, NI 0.50, UI 0.01 where present
[22] = DAT 8, NI 0.20, UI 0.01 where present
[23] = DAT 8, NI 0.35, UI 0.01 where present
[24] = DAT 8, NI 0.50, UI 0.01 where present
[25] = DAT 10, NI 0.20, UI 0.01 where present
[26] = DAT 10, NI 0.35, UI 0.01 where present
[27] = DAT 10, NI 0.50, UI 0.01 where present
[28] = DAT 12, NI 0.20, UI 0.01 where present
[29] = DAT 12, NI 0.35, UI 0.01 where present
[30] = DAT 12, NI 0.50, UI 0.01 where present
[31] = DAT 16, NI 0.20, UI 0.01 where present
[32] = DAT 16, NI 0.35, UI 0.01 where present
[33] = DAT 16, NI 0.50, UI 0.01 where present
[34] = DAT 19, NI 0.20, UI 0.01 where present
[35] = DAT 19, NI 0.35, UI 0.01 where present
[36] = DAT 19, NI 0.50, UI 0.01 where present

Structure (SMILES): Cc1cn(C(CC(=O)[O-])C(=O)[O-])nc1C.[K+].[K+] (stereo not shown) [DMPSA-K2]
- Nitrous oxide (N2O) emissions, cumulated values [1]: 8.97 μg N2O—N/m2*h
- Nitrous oxide (N2O) emissions, cumulated values [2]: 7.74 μg N2O—N/m2*h
- Nitrous oxide (N2O) emissions, cumulated values [3]: 7.62 μg N2O—N/m2*h
- Nitrous oxide (N2O) emissions, cumulated values [4]: 19.30 μg N2O—N/m2*h
- Nitrous oxide (N2O) emissions, cumulated values [5]: 18.94 μg N2O—N/m2*h
- Nitrous oxide (N2O) emissions, cumulated values [6]: 20.18 μg N2O—N/m2*h
- Nitrous oxide (N2O) emissions, cumulated values [7]: 29.75 μg N2O—N/m2*h
- Nitrous oxide (N2O) emissions, cumulated values [8]: 29.26 μg N2O—N/m2*h
- Nitrous oxide (N2O) emissions, cumulated values [9]: 30.31 μg N2O—N/m2*h
- Nitrous oxide (N2O) emissions, cumulated values [10]: 37.16 μg N2O—N/m2*h
- Nitrous oxide (N2O) emissions, cumulated values [11]: 37.09 μg N2O—N/m2*h
- Nitrous oxide (N2O) emissions, cumulated values [12]: 37.69 μg N2O—N/m2*h
- Nitrous oxide (N2O) emissions, cumulated values [13]: 45.99 μg N2O—N/m2*h
- Nitrous oxide (N2O) emissions, cumulated values [14]: 46.55 μg N2O—N/m2*h
- Nitrous oxide (N2O) emissions, cumulated values [15]: 46.97 μg N2O—N/m2*h
- Nitrous oxide (N2O) emissions, cumulated values [16]: 52.71 μg N2O—N/m2*h
- Nitrous oxide (N2O) emissions, cumulated values [17]: 52.67 μg N2O—N/m2*h
- Nitrous oxide (N2O) emissions, cumulated values [18]: 52.44 μg N2O—N/m2*h
- Nitrous oxide (N2O) emissions, cumulated values [19]: 60.65 μg N2O—N/m2*h
- Nitrous oxide (N2O) emissions, cumulated values [20]: 60.12 μg N2O—N/m2*h
- Nitrous oxide (N2O) emissions, cumulated values [21]: 62.57 μg N2O—N/m2*h
- Nitrous oxide (N2O) emissions, cumulated values [22]: 68.52 μg N2O—N/m2*h
- Nitrous oxide (N2O) emissions, cumulated values [23]: 70.52 μg N2O—N/m2*h
- Nitrous oxide (N2O) emissions, cumulated values [24]: 72.03 μg N2O—N/m2*h
- Nitrous oxide (N2O) emissions, cumulated values [25]: 77.59 μg N2O—N/m2*h
- Nitrous oxide (N2O) emissions, cumulated values [26]: 77.77 μg N2O—N/m2*h
- Nitrous oxide (N2O) emissions, cumulated values [27]: 79.00 μg N2O—N/m2*h
- Nitrous oxide (N2O) emissions, cumulated values [28]: 85.15 μg N2O—N/m2*h
- Nitrous oxide (N2O) emissions, cumulated values [29]: 81.35 μg N2O—N/m2*h
- Nitrous oxide (N2O) emissions, cumulated values [30]: 82.43 μg N2O—N/m2*h
- Nitrous oxide (N2O) emissions, cumulated values [31]: 87.97 μg N2O—N/m2*h
- Nitrous oxide (N2O) emissions, cumulated values [32]: 84.12 μg N2O—N/m2*h
- Nitrous oxide (N2O) emissions, cumulated values [33]: 84.05 μg N2O—N/m2*h
- Nitrous oxide (N2O) emissions, cumulated values [34]: 88.83 μg N2O—N/m2*h
- Nitrous oxide (N2O) emissions, cumulated values [35]: 84.94 μg N2O—N/m2*h
- Nitrous oxide (N2O) emissions, cumulated values [36]: 84.28 μg N2O—N/m2*h
- Nitrous oxide (N2O) emissions, % appl. N (NI 0.20, UI 0.01 where present): 0.381 % appl. N
- Nitrous oxide (N2O) emissions, % appl. N (NI 0.35, UI 0.01 where present): 0.364 % appl. N
- Nitrous oxide (N2O) emissions, % appl. N (NI 0.50, UI 0.01 where present): 0.361 % appl. N

Structure (SMILES): Cc1cn(C(CC(=O)O)C(=O)O)nc1C.N.N (stereo not shown) [DMPSA-di-NH4]
- Nitrous oxide (N2O) emissions, cumulated values [1]: 5.71 μg N2O—N/m2*h
- Nitrous oxide (N2O) emissions, cumulated values [2]: 6.74 μg N2O—N/m2*h
- Nitrous oxide (N2O) emissions, cumulated values [3]: 7.89 μg N2O—N/m2*h
- Nitrous oxide (N2O) emissions, cumulated values [4]: 17.84 μg N2O—N/m2*h
- Nitrous oxide (N2O) emissions, cumulated values [5]: 22.08 μg N2O—N/m2*h
- Nitrous oxide (N2O) emissions, cumulated values [6]: 16.36 μg N2O—N/m2*h
- Nitrous oxide (N2O) emissions, cumulated values [7]: 28.36 μg N2O—N/m2*h
- Nitrous oxide (N2O) emissions, cumulated values [8]: 30.26 μg N2O—N/m2*h
- Nitrous oxide (N2O) emissions, cumulated values [9]: 23.64 μg N2O—N/m2*h
- Nitrous oxide (N2O) emissions, cumulated values [10]: 40.61 μg N2O—N/m2*h
- Nitrous oxide (N2O) emissions, cumulated values [11]: 39.25 μg N2O—N/m2*h
- Nitrous oxide (N2O) emissions, cumulated values [12]: 31.59 μg N2O—N/m2*h
- Nitrous oxide (N2O) emissions, cumulated values [13]: 51.02 μg N2O—N/m2*h
- Nitrous oxide (N2O) emissions, cumulated values [14]: 47.97 μg N2O—N/m2*h
- Nitrous oxide (N2O) emissions, cumulated values [15]: 38.95 μg N2O—N/m2*h
- Nitrous oxide (N2O) emissions, cumulated values [16]: 57.34 μg N2O—N/m2*h
- Nitrous oxide (N2O) emissions, cumulated values [17]: 54.68 μg N2O—N/m2*h
- Nitrous oxide (N2O) emissions, cumulated values [18]: 45.83 μg N2O—N/m2*h
- Nitrous oxide (N2O) emissions, cumulated values [19]: 66.12 μg N2O—N/m2*h
- Nitrous oxide (N2O) emissions, cumulated values [20]: 60.89 μg N2O—N/m2*h
- Nitrous oxide (N2O) emissions, cumulated values [21]: 53.03 μg N2O—N/m2*h
- Nitrous oxide (N2O) emissions, cumulated values [22]: 76.79 μg N2O—N/m2*h
- Nitrous oxide (N2O) emissions, cumulated values [23]: 66.75 μg N2O—N/m2*h
- Nitrous oxide (N2O) emissions, cumulated values [24]: 62.02 μg N2O—N/m2*h
- Nitrous oxide (N2O) emissions, cumulated values [25]: 86.54 μg N2O—N/m2*h
- Nitrous oxide (N2O) emissions, cumulated values [26]: 72.23 μg N2O—N/m2*h
- Nitrous oxide (N2O) emissions, cumulated values [27]: 67.48 μg N2O—N/m2*h
- Nitrous oxide (N2O) emissions, cumulated values [28]: 92.81 μg N2O—N/m2*h
- Nitrous oxide (N2O) emissions, cumulated values [29]: 76.32 μg N2O—N/m2*h
- Nitrous oxide (N2O) emissions, cumulated values [30]: 72.35 μg N2O—N/m2*h
- Nitrous oxide (N2O) emissions, cumulated values [31]: 93.10 μg N2O—N/m2*h
- Nitrous oxide (N2O) emissions, cumulated values [32]: 78.21 μg N2O—N/m2*h
- Nitrous oxide (N2O) emissions, cumulated values [33]: 74.66 μg N2O—N/m2*h
- Nitrous oxide (N2O) emissions, cumulated values [34]: 93.49 μg N2O—N/m2*h
- Nitrous oxide (N2O) emissions, cumulated values [35]: 78.47 μg N2O—N/m2*h
- Nitrous oxide (N2O) emissions, cumulated values [36]: 75.03 μg N2O—N/m2*h
- Nitrous oxide (N2O) emissions, % appl. N (NI 0.20, UI 0.01 where present): 0.401 % appl. N
- Nitrous oxide (N2O) emissions, % appl. N (NI 0.35, UI 0.01 where present): 0.337 % appl. N
- Nitrous oxide (N2O) emissions, % appl. N (NI 0.50, UI 0.01 where present): 0.322 % appl. N

Structure (SMILES): CCCCNP(N)(N)=S [NBPT, N-(n-butyl)thiophosphoric acid triamide, reference compound]
- Nitrous oxide (N2O) emissions, cumulated values (DAT 1, no NI, UI 0.01): 9.77 μg N2O—N/m2*h
- Nitrous oxide (N2O) emissions, cumulated values (DAT 2, no NI, UI 0.01): 27.42 μg N2O—N/m2*h
- Nitrous oxide (N2O) emissions, cumulated values (DAT 3, no NI, UI 0.01): 40.07 μg N2O—N/m2*h
- Nitrous oxide (N2O) emissions, cumulated values (DAT 4, no NI, UI 0.01): 53.70 μg N2O—N/m2*h
- Nitrous oxide (N2O) emissions, cumulated values (DAT 5, no NI, UI 0.01): 68.86 μg N2O—N/m2*h
- Nitrous oxide (N2O) emissions, cumulated values (DAT 6, no NI, UI 0.01): 89.16 μg N2O—N/m2*h
- Nitrous oxide (N2O) emissions, cumulated values (DAT 7, no NI, UI 0.01): 109.04 μg N2O—N/m2*h
- Nitrous oxide (N2O) emissions, cumulated values (DAT 8, no NI, UI 0.01): 127.94 μg N2O—N/m2*h
- Nitrous oxide (N2O) emissions, cumulated values (DAT 10, no NI, UI 0.01): 133.95 μg N2O—N/m2*h
- Nitrous oxide (N2O) emissions, cumulated values (DAT 12, no NI, UI 0.01): 140.07 μg N2O—N/m2*h
- Nitrous oxide (N2O) emissions, cumulated values (DAT 16, no NI, UI 0.01): 143.31 μg N2O—N/m2*h
- Nitrous oxide (N2O) emissions, cumulated values (DAT 19, no NI, UI 0.01): 146.30 μg N2O—N/m2*h
- Nitrous oxide (N2O) emissions, % appl. N (no NI, UI 0.01): 0.628 % appl. N
